From publication PMC7747594, “Protease-activated receptor-2 ligands reveal orthosteric and allosteric mechanisms of receptor inhibition” (Communications Biology, 2020)
“And” between values parts separate entries of the source, which are not always exact repeats. Identical values can stand only once.

What was measured:
hPAR2 = biological target: T1, hPAR2 (Homo sapiens, UniProt P55085); assay: pERK1/2 assay, agonist mode, U2OS-hPAR2 cells; assay type: cell-based; set-up: agonist response (Fig 2e), individual replicate values: unit not given here
T1 sequence (P55085 26-397): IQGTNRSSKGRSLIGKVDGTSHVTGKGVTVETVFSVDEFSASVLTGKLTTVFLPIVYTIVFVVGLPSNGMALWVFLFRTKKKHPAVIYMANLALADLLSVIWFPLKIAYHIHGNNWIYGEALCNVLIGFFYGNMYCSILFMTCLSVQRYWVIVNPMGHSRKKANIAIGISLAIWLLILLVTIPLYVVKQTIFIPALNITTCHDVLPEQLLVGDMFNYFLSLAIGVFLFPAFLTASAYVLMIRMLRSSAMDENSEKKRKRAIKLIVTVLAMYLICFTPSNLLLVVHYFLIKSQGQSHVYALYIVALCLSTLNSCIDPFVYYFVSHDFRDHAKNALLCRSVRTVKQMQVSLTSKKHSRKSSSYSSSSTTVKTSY

PAR2[F154A], PAR2[G157C] = assay: Ca^2+ flux assay, inhibition of trypsin in 1321N1 cells transiently transfected with PAR2 [WT], [F154A] or [G157C]; assay type: cell-based, human; settings: [F154A and G157C], monophasic
Protocol: Cell culture reagents were purchased from ThermoFisher Scientific unless otherwise stated. The parental 1321N1 cell line was obtained from ECACC. 1321N1 cells, stably expressing the human PAR2 receptor, (1321N1-hPAR2) were routinely cultured in Dulbecco’s Modified Eagle Medium (DMEM) supplemented with GlutaMax-1 containing 10% fetal bovine serum (FBS) and G418 (600 µg ml^−1). U2OS cells, stably expressing human PAR2 (U2OS-hPAR2, 93-0235C3, DiscoverX/Eurofins) were routinely cultured in McCoy’s 5A media containing 10% FBS, G418 (500 µg ml^−1) and Hygromycin B (250 µg ml^−1). Rodent PAR2 was assessed in rat KNRK cells (ATCC) cultured in DMEM with 10% FBS supplemented with 2 mM L-Glutamine. Human PAR2 was assessed in HT-29 cells (ECACC) cultured in DMEM with 10% FBS supplemented with penicillin (50 U ml^−1) and streptomycin (50 µg ml^−1). […]
For evaluation of Ca^2+ mobilisation, 1321N1-hPAR2 cells were seeded in 384-well CellBIND plates (Corning) at 4000 cells per well in DMEM containing 10% FBS and incubated for 18–24 hours at 37 °C, 5% CO2 and 95% humidity. […] Inhibition of Ca^2+ release on rat PAR2 was measured in the same way using 10 000 KNRK cells per well seeded in poly-D-lysine coated 384-well plates (Greiner), 30 min preincubation with the compound before activation of PAR2 with EC80 of SLIGRL-NH2 (120 µM) and real-time detection of Ca^2+. […]

[1] = biological target: T2, PAR2 stabilised receptor (StaR) (Homo sapiens, UniProt P55085); settings: SPR, previously reported; cited from earlier work
T2 sequence (P55085 55-377): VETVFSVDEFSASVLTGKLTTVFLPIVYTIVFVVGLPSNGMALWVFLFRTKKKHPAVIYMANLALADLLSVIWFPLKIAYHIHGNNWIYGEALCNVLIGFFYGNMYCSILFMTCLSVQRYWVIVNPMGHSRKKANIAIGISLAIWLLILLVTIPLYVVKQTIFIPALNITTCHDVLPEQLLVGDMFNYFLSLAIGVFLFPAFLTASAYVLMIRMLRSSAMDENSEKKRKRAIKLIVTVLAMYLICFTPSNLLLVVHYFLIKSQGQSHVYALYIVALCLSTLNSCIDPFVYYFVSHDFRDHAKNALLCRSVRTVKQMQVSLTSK

## CNC(=O)[C@H]1CC[C@@H](NC(=O)[C@H](CC2CCCCC2)NC(=O)c2cn(Cc3ccccc3)nn2)c2ccccc21 [AZ2429]
hPAR2; U2OS-hPAR2, mean ± s.e.m., read-out: pERK1/2 pEC50 (converted)
  EC50: 0.0398 µM
hPAR2; [compound],M -4.52288
  agonist response (Fig 2e), individual replicate values: 92.0141 and 74.7053 and 111.675 and 66.5866 and 60.3473 and 74.0471 and 117.965 and 130.52 and 124.805 and 98.7887 and 171.327 and 138.91
hPAR2; [compound],M -5
  agonist response (Fig 2e), individual replicate values: 145.403 and 95.3612 and 122.434 and 53.1755 and 72.071 and 69.3732 and 123.833 and 115.408 and 143.854 and 198.596 and 120.076 and 126.959
hPAR2; [compound],M -5.47712
  agonist response (Fig 2e), individual replicate values: 102.451 and 94.8209 and 99.914 and 62.5677 and 62.1847 and 84.7772 and 121.954 and 124.064 and 131.389 and 108.103 and 101.197 and 120.75
hPAR2; [compound],M -5.95424
  agonist response (Fig 2e), individual replicate values: 89.9122 and 82.9611 and 84.3447 and 63.5614 and 54.0303 and 47.0028 and 93.3928 and 116.239 and 97.5862 and 98.4234 and 105.569 and 117.075
hPAR2; [compound],M -6.43136
  agonist response (Fig 2e), individual replicate values: 89.3258 and 69.9482 and 44.5682 and 54.9685 and 62.0293 and 44.3162 and 80.2501 and 88.0999 and 54.8467 and 72.3986 and 88.607 and 61.7832
hPAR2; [compound],M -6.90849
  agonist response (Fig 2e), individual replicate values: 70.3304 and 41.0432 and 36.2531 and 47.5801 and 30.25 and 29.0399 and 34.5189 and 34.3783 and 18.7041 and 36.9798 and 32.4711 and 22.2209
hPAR2; [compound],M -7.38561
  agonist response (Fig 2e), individual replicate values: 20.4269 and 21.9818 and 16.3418 and 12.8089 and 11.7486 and 24.5769 and 9.704 and 15.3673 and 6.674 and 12.0051 and 3.09 and 15.3723
hPAR2; [compound],M -7.86273
  agonist response (Fig 2e), individual replicate values: 4.95 and -1.995 and 15.7225 and 4.505 and 8.124 and 3.783 and 3.311 and 7.198 and -0.6009 and -4.9 and 2.6 and 2.634
hPAR2; [compound],M -8.33985
  agonist response (Fig 2e), individual replicate values: 2.5581 and 8.989 and 6.59 and 1.141

## C[C@@H](C1CCCCC1)n1c(-c2cc3c(cc2Br)OCO3)nc2cc(C(=O)Nc3ccc(C#N)cc3)ccc21 [AZ3451]
PAR2[F154A], PAR2[G157C]
  inhibition of trypsin-induced PAR2 activation at mutant receptors pIC50: 6

## CCCc1cc(F)ccc1C(O)c1ncc[nH]1 (stereo not drawn) [AZ8838]
[1]
  residence time: about 84 min
